In US20100297159A1, “THOMSEN-FRIEDENREICH DISACCHARIDE MODIFIED IMMUNOGEN (TFD), PREPARATION PROCEDURE, COMPOSITIONS COMPRISING IT, USES, AND TREATMENT METHODS” (CONSEJO NACIONAL DE INVESTIGACIONES CIETIFICAS Y TECNICAS …, priority 2007, published 2010):
Read-outs that look alike come from different tables or passages of the source.

Columns and labels:
[1] = system: TFD-BSA antigen / IgG, IgM antibodies interaction; assay: Competition ELISA, inhibition of antibody interaction with TFD-BSA antigen; type: binding, mice; conditions: for IC50: antisera from BzlαTFD-Lys5-KLHs immunization; for Inhibitory effect in the interaction of TFD-BSA/antigen T-IgG/IgM antibodies: competition ELISA, TFD-BSA and antigen T, in words
Protocol: (§1) Target antigens (10 μg/ml) were adhered to multi-well plates of polystirene in saline phosphate buffer (PBS; 10 mM sodium phosphate, pH 7.2 and 150 mM NaCl) overnight at 4° C. Glycolipids were diluted in methanol and dried for 1 hour at 60° C. After covering the wells with the antigens, these were saturated with PBS-1% BSA-0.05% Tween 20 for 1 hour at 37° C. Serial dilutions of antiserum were incubates with the antigen for 2 hours at room temperature, and then washed 5 times with PBS. The adhered antigen-antibody complex was detected with a 1/1000 dilution of anti-IgG goat antibody or mouse IgM conjugated with peroxydase in PBS-0.05% Tween 20 (PBS-T), incubates at room temperature for 1 hour, and washed 5 times with PBS. Color reaction was developed as described for ELA.
(§2) The three antibodies showing highest anti-TFD and anti-antigen T levels were analyzed by competition ELISA, and results were averaged. Optimum antiserum dilutions with an optical density of 1.0 against TFD-BSA and T-MUC1 (10 μg/ml) as blanc antigen were determined in preliminary experiments. Competition ELISA stages were equal to those in ELISA, except in that optimal antiserum dilution was pre-incubated with several related antigens in carbohydrates for 1 hour at room temperature before being added to the wells. Minimum concentration of carbohydrates required for 50% inhibition (ID50) of antigen-antibody interaction is a more specific parameter.

[2] = system: T-MUC1 antigen / IgG, IgM antibodies interaction; assay: Competition ELISA, inhibition of antibody interaction with T-MUC1 antigen; type: binding, mice; conditions: antisera from BzlαTFD-Lys5-KLHs immunization
Protocol: as §1, §2

[3] = system: HT29 tumor cell / antibody interaction; assay: Competition ELISA of cells, inhibition of antibody interaction with HT29 tumor cells; type: cell-based, human; conditions: for Inhibitory effect, IgM mediated interaction: in words; for Inhibitory effect relative to BzlαTFD, IgM mediated interaction: times less inhibitory effect than BzlαTFD
Protocol: Level of antibodies against epithelial tumor cells was determined using lines HT29, MCF7, and T47D. Tumor cells were cultured to sub-comfluence in media recommended by ATCC, and harvested by treatment with trypsin. They were adsorbed to multi-well plates, fixed with cold methanol for […] and saturated with PBS-T for 1 hour at room temperature. ELISA of cells was carried out by incubating serial dilutions of mouse sera against the different tumor lines for 2 hours at room temperature in PBS, and then was washed 4 times with PBS-T. The adhered antigen-antibody complex was detected with a 1/1000 dilution of anti-IgG goat antibody or mouse IgM conjugated to a peroxidase in PBS-T, incubated for 1 hour at room temperature, and washed […] PBS-T. Color reaction was developed as described for ELA. Steps for competition ELISA of cells were the same as for ELISA of cells, except in that the optimum anti-sera dilution was pre-incubated with several antigens related to carbohydrates for 1 hour at room temperature prior to the addition to the plate wells.

[4] = IgG, read-out: Concentration required to produce 50% inhibition (IC50), TFD-BSA antigen, IgG
[5] = IgM, read-out: Concentration required to produce 50% inhibition (IC50), TFD-BSA antigen, IgM
[6] = IgG, read-out: Concentration required to produce 50% inhibition (IC50), T-MUC1 antigen, IgG
[7] = IgM, read-out: Concentration required to produce 50% inhibition (IC50), T-MUC1 antigen, IgM
[8] = Homo sapiens, HT-29, HT29, IgG, read-out: Concentration requested to produce 50% inhibition (IC50), antibodies with HT29 tumor cell interaction, IgG
[9] = Homo sapiens, HT-29, HT29, IgM, read-out: Concentration requested to produce 50% inhibition (IC50), antibodies with HT29 tumor cell interaction, IgM
[10] = HT29, IgM, read-out: Concentration requested to produce 50% inhibition (IC50), antibodies with HT29 tumor cell interaction, IgM
[11] = HT29, IgG, read-out: Concentration requested to produce 50% inhibition (IC50), antibodies with HT29 tumor cell interaction, IgG

With `CC(=O)NC1C(OCc2ccccc2)OC(CO)C(O)C1OC1OC(CO)C(O)C(O)C1O` (centres unmarked) [BzlαTFD] the IC50 [1, 4] was 2.5 mM, the IC50 [1, 5] was 0.1 mM and the “Inhibitory effect in the interaction of TFD-BSA/antigen T-IgG/IgM antibodies” value [1] was “significant inhibition”. The IC50 [2, 6] was 10 mM, the IC50 [2, 7] was > 10 mM and the “Inhibitory effect, IgM mediated interaction” value ([3]; HT29) was “greatest inhibitors”. For the same molecule, the IC50 [3, 8] was 4 mM and the IC50 [3, 9] was 2 mM.

`CC(=O)NC1C(O)OC(CO)C(O)C1O` (centres unmarked) [GalNAc] was tested, and the IC50 [1, 4] was 20 mM, the IC50 [1, 5] was 30 mM and the IC50 [2, 6] was > 100 mM. The IC50 [2, 7] was > 100 mM, the IC50 [3, 10] was 20 mM and the “Inhibitory effect relative to BzlαTFD, IgM mediated interaction” value (shortened to “Inhibitory effect relative to BzlαTFD”) ([3]; HT29) was 10 times. The IC50 [3, 8] was > 100 mM.

In the case of `OCC1OC(O)C(O)C(O)C1O` (centres unmarked) [Glc], the IC50 [1, 4] is reported as > 100 mM, the IC50 [1, 5] is reported as > 100 mM and the “Inhibitory effect in the interaction of TFD-BSA/antigen T-IgG/IgM antibodies” value [1] is reported as “did not show any effect”. The IC50 [2, 6] was > 100 mM, the IC50 [2, 7] was > 100 mM and the IC50 [3, 8] was > 100 mM. For the same molecule, the IC50 [3, 9] was > 100 mM.

For `CC(=O)NC1C(OCc2ccccc2)OC(CO)C(O)C1O` (centres unmarked) [BzlαGalNAc], the IC50 [1, 4] was 5 mM, the IC50 [1, 5] was 1 mM and the “Inhibitory effect in the interaction of TFD-BSA/antigen T-IgG/IgM antibodies” value [1] was “significant inhibition”. The IC50 [2, 6] was 20 mM, the IC50 [2, 7] was > 20 mM and the “Inhibitory effect relative to BzlαTFD” value ([3]; HT29) was 4 times. The IC50 [3, 8] was 8 mM and the IC50 [3, 9] was 8 mM.

For `CC(=O)N[C@H]1[C@@H](Oc2ccc([N+](=O)[O-])cc2)O[C@H](CO)[C@H](O)[C@@H]1O[C@@H]1O[C@H](CO)[C@H](O)[C@H](O)[C@H]1O` [pNPαTFD], the IC50 [3, 11] was > 10 mM, the IC50 [3, 10] was 2 mM and the “Inhibitory effect, IgM mediated interaction” value ([3]; HT29) was “greatest inhibitors”.

With `CC(=O)N[C@@H]1[C@@H](O[C@@H]2O[C@H](CO)[C@H](O)[C@H](O)[C@H]2O)[C@@H](O)[C@@H](CO)O[C@@H]1O` [TFD, Galβ3GalNAcα] the IC50 [1, 4] was 10 mM, the IC50 [1, 5] was 3.5 mM and the “Inhibitory effect in the interaction of TFD-BSA/antigen T-IgG/IgM antibodies” value [1] was “significant inhibition”. For the same molecule, the IC50 [2, 6] was 20 mM, the IC50 [2, 7] was > 20 mM and the IC50 [3, 11] was > 10 mM. For the same molecule, the IC50 [3, 10] was 8 mM and the “Inhibitory effect relative to BzlαTFD” value ([3]; HT29) was 4 times.

In the case of `OCC1OC(O)C(O)C(O)C1O` (centres unmarked) [Gal], the “Inhibitory effect, IgM mediated interaction” value ([3]; HT29) is reported as “did not show inhibitory effect”.

`CC(=O)NC1C(O)OC(CO)C(O)C1O` (centres unmarked) [GlcNAc] was tested, and the IC50 [1, 4] was > 100 mM, the IC50 [1, 5] was > 100 mM and the “Inhibitory effect in the interaction of TFD-BSA/antigen T-IgG/IgM antibodies” value [1] was “did not show any effect”. The IC50 [2, 6] was > 100 mM, the IC50 [2, 7] was > 100 mM and the IC50 [3, 11] was > 100 mM. The IC50 [3, 10] was > 100 mM and the “Inhibitory effect, IgM mediated interaction” value ([3]; HT29) was “did not show inhibitory effect”.
